Results as given in PubChem BioAssay (NCI).
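Dose response: 5 concentrations. Exposure: 48 h. Format: 96-well plates. Endpoint: linear interpolation; highest concentration if not reached. TGI: total growth inhibition.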

How the values were obtained:
Test in all cases: NCI-60 cell line screen, 48 h
[1] = tested on: U251 CNS
[2] = tested on: 786-0 renal
[3] = tested on: UO-31 renal
[4] = tested on: MALME-3M melanoma
[5] = tested on: UACC-62 melanoma
[6] = tested on: M14 melanoma
[7] = tested on: A549 NSCLC
[8] = tested on: NCI-H522 lung
[9] = tested on: A498 renal
[10] = tested on: LOX IMVI melanoma
[11] = tested on: NCI-H23 lung
[12] = tested on: NCI-H226 lung
[13] = tested on: HL-60(TB) leukemia
[14] = tested on: XF 498 CNS
[15] = tested on: NCI-H460 lung
[16] = tested on: HOP-92 NSCLC
[17] = tested on: DMS 273 small cell lung
[18] = tested on: SF-539 CNS
[19] = tested on: OVCAR-3 ovarian
[20] = tested on: HT29 colon
[21] = tested on: HCC-2998 colon
[22] = tested on: SK-MEL-2 melanoma
[23] = tested on: EKVX NSCLC
[24] = tested on: CCRF-CEM leukemia
[25] = tested on: LXFL 529 NSCLC
[26] = tested on: SN12C renal
[27] = tested on: TK-10 renal
[28] = tested on: KM12 colon
[29] = tested on: SK-OV-3 ovarian
[30] = tested on: CAKI-1 renal
[31] = tested on: DLD-1 colon
[32] = tested on: SF-268 CNS
[33] = tested on: SF-295 CNS
[34] = tested on: RPMI-8226 leukemia
[35] = tested on: IGROV1 ovarian
[36] = tested on: COLO 205 colon
[37] = tested on: K-562 leukemia
[38] = tested on: SW-620 colon
[39] = tested on: OVCAR-4 ovarian
[40] = tested on: KM20L2 colon
[41] = tested on: OVCAR-8 ovarian
[42] = tested on: M19-MEL melanoma
[43] = tested on: SNB-19 CNS
[44] = tested on: HOP-18 NSCLC
[45] = tested on: DMS 114 small cell lung
[46] = tested on: OVCAR-5 ovarian
[47] = tested on: HCT-15 colon
[48] = tested on: MOLT-4 leukemia
[49] = tested on: ACHN renal
[50] = tested on: UACC-257 melanoma
[51] = tested on: HCT-116 colon

Measured: TGI

O=C(CCC(=O)Nc1ccc(Cl)c(Cl)c1)CC(=O)c1ccc(Cl)cc1
> 100 µM: all assays above
